Experimental data: patent publication US20240360145A1, “PYRIMIDINE-2,4-DIAMINE DERIVATIVES AS WELL AS PREPARATION METHOD THEREFOR AND USE THEREOF” (LISEN THERAPEUTICS, INC., priority 2022, published 2024)
pIC50: −log10 of the molar value.

Assays:
DMS114 cells = assay: Cell viability IC50 (CCK-8), small cell lung cancer cell line DMS114; format: cell-based; conditions: Homo sapiens, DMS-114; DMS114, CCK-8
Procedure: (§1) Small cell lung cancer cell lines DMS114, NCI-H1688, NCI-H82, NCI-H146, and NCI-H446 cells were cultured in RPMI-1640 medium containing 10% fetal bovine serum and 1% penicillin-streptomycin. All the cells were cultured in a constant temperature incubator containing 5% CO2 at 37° C.
(§2) Small cell lung cancer is a highly heterogeneous malignant tumor, and its clinical treatment is mainly based on traditional chemotherapy (mainly platinum medicaments and etoposide). In order to study the anti-tumor activity of the compounds of the present disclosure in small cell lung cancer, the CCK-8 method was used to investigate the cell viability IC50 of compound 8 for five small cell lung cancer cell lines.

PC-3 (prostate cancer) = assay: Cell viability IC50 (CellTiter-Glo), PC-3; format: cell-based; conditions: PC-3, 72 hours
Procedure: (§3) The cancer cell lines were cultured to the logarithmic growth phase according to conventional culture methods, and the cells were inoculated into a 384-well plate at a density of 2,000 cells/well in a volume of 40 μl/well. The concentrations of added compounds were: […], 1.67 μM, 0.56 μM, 0.19 μM, 0.062 μM, 0.021 μM, 0.0069 μM, 0.0023 μM, 0.00076 μM, and 0 μM. After 72 hours, cell viability was detected using the CellTiter-Glo™ Detection Kit.

[1] = tested on: MiaPaca-2 (pancreatic cancer); assay: Cell viability IC50 (CellTiter-Glo), MiaPaca-2; format: cell-based; conditions: Homo sapiens, MIA PaCa-2, MiaPaca-2, 72 hours
Procedure: as §3

NCI-H82 cells = assay: Cell viability IC50 (CCK-8), small cell lung cancer cell line H82; format: cell-based; conditions: Homo sapiens, NCI-H82; H82, CCK-8
Procedure: as §1, §2

Hep3B (liver cancer) = assay: Cell viability IC50 (CellTiter-Glo), Hep3B; format: cell-based; conditions: Homo sapiens, 72 hours
Procedure: as §3

PE043 primary cells = assay: Cell viability IC50 (CCK-8), primary cells PE043 from lung adenocarcinoma pleural effusion resistant to EGFR-TKI; conditions: read-out: cell viability IC50
Procedure: (1) The pleural effusion was poured into a 15 mL or 50 mL of sterilized centrifuge tube for centrifugation. Centrifugation conditions: 800 to 1000 rpm, 5 min.
(2) The precipitate was resuspended and washed for 2 to 3 times with PBS.
(3) The cell precipitate was resuspended with complete culture medium (α-MEM medium containing 10% fetal bovine serum and 2% penicillin-streptomycin), and the flocculent matter in the pleural effusion was removed using a sterilized cell sieve.
(4) The red blood cells in the pleural effusion were removed with lymphocyte separation fluid, and the tumor cells and lymphocyte components were collected. The number of tumor cells was observed under a microscope, and the cells were inoculated.
(5) After 24 hours, the supernatant was discarded, and fresh culture medium was added for further culture.
(6) The cell growth status was observed, and it was determined based on the cell status whether the medium was required to be continuously changed to remove blood cells. When the cells grew to a density of 80% to 90%, the cells were preserved.
(1) Primary cells from lung cancer pleural effusion within 5 generations were cultured to the logarithmic growth phase. […] After centrifugation at room temperature, the supernatant was discarded, and the cell precipitate was resuspended with fresh complete culture medium. After counting, the cells were placed at room temperature for later use. The cells were inoculated into a 384-well plate at a density of 2000 cells/well with a volume of 40 μl/well. The wells at the outermost circle of the plate were not inoculated with cells, and instead, added with sterile water to reduce evaporation of the culture medium.
(2) After overnight culture of the cells, the medium was discarded, and a fresh medium containing different concentrations of compounds was added at 200 μl/well. The dilution method of the compound was as follows: first the compound with the highest concentration of 10 μM was prepared, and then the compound was diluted for 3 times in sequence. […] At the same time, a blank control group was set up, in which only an equal volume of culture medium was added without adding cells. Five replicate wells were set up for each group. The cells were placed in the incubator for further culture.
(3) After 72 hours, 8 μl of CCK-8 solution, which was double-diluted with 10 mM PBS, was added to each well, and the cells were shaken and placed in an incubator at 37° C. for further culture for 2 hours.
(4) The light absorbance value at 450 nm was read using a microplate reader, and the IC50 was calculated according to the absorbance value.

LN-18 (glioma) = assay: Cell viability IC50 (CellTiter-Glo), LN-18; format: cell-based; conditions: Homo sapiens, LN-18, 72 hours
Procedure: as §3

CN1CC2CCC(C1)N2Cc1ccc(Nc2ncc(Cl)c(Nc3ccccc3S(=O)(=O)N(C)C)n2)cc1 [Compound 8, 2-((5-chloro-2-((4-((3-methyl-3,8-diazabicyclo[3.2.1]octan-8-yl)methyl)phenyl)amino)pyrimidin-4-yl)amino)-N,N-dimethylbenzenesulfonamide]
pIC50 (DMS114 cells): 8.22
pIC50 (PC-3 (prostate cancer)): < 5.52
pIC50 [1]: 7.88
pIC50 (NCI-H82 cells): 8.29
pIC50 (Hep3B (liver cancer)): 6.73
pIC50 (PE043 primary cells): 7.46
pIC50 (LN-18 (glioma)): 8.11
